The source of these data is US20260018245A1, “SYSTEMS AND METHODS FOR IDENTIFYING AND TARGETING COLLATERAL LETHAL GENES” (The Regents of the University of Michigan, priority 2022, published 2026).

Format in all cases: cell-based
Assay [1] concerns oxidative MTHFD2 flux in SKOV3 cells. The assay is described as follows: Oxidative MTHFD2 flux by 4-[2H]-glucose tracing. As to conditions: SKOV3, increasing rotenone doses (0-1,000 nM), 8 h. How it is done: (§1) FIG. 4 Dynamic flux analysis with parallel tracers to quantify oxidative MTHFD2 flux. a, Oxidative MTHFD2 flux and percentage decrease in OCRfollowing MTHFD2 inhibition in SKOV3 cells treated with rotenone (0, 31, 62, 125, 250, 500 or 1,000 nM) and MTHFD2 inhibitor (0 or 60 μM). Oxidative MTHFD2 flux is proportional to [2H1]-serine/[2H1]-NADH enrichment in cells cultured with 4-[2H]-glucose for 8 h. Percentage decrease in OCR is estimated in SKOV3 cells treated with 60 μM MTHFD2i compared with 0 μM MTHFD2i. Oxidative flux data are combined from two independent experiments (n=4), with mean±s.d. estimated using error propagation. […] (n=6) and analysed using two-tailed Welch's t-test. e, Ratio of [2H2]-serine/[2H]-NADH enrichment in SKOV3 and OVCAR8 cells at 2 h after combined tracer introduction of 4-[2H]-glucose and [2H]-formate, representing the normalized contribution of [2H]-NADH to [2H2]-serine via oxidative MTHFD2 flux. Data combined from two independent experiments (n=6), with mean±s.d. estimated using error propagation and analysed by two-tailed Welch's t-test. f, [2H2]-serine enrichment in SKOV3 cells expressing shScramble or shUQCR11 at 2 h after combined tracer introduction of 4-[2H]-glucose and [2H]-formate. […] (n=5) and analysed using one-tailed non-parametric Mann-Whitney test. […]

Assay [2] has as its system reductive MTHFD2 flux in SKOV3 cells. The assay is described as follows: Reductive MTHFD2 flux by 2,3,3-[2H]-serine tracing. As to conditions: SKOV3, increasing rotenone doses, 8 h. How it is done:
as §1

A further assay deals with SKOV3 cells. The assay is described as follows: Oxygen consumption rate (OCR) measurement. As to conditions: SKOV3, increasing rotenone concentrations. How it is done: FIG. 4 Dynamic flux analysis with parallel tracers to quantify oxidative MTHFD2 flux. a, Oxidative MTHFD2 flux and percentage decrease in OCRfollowing MTHFD2 inhibition in SKOV3 cells treated with rotenone (0, 31, 62, 125, 250, 500 or 1,000 nM) and MTHFD2 inhibitor (0 or 60 μM). Oxidative MTHFD2 flux is proportional to [2H1]-serine/[2H1]-NADH enrichment in cells cultured with 4-[2H]-glucose for 8 h. Percentage decrease in OCR is estimated in SKOV3 cells treated with 60 μM MTHFD2i compared with 0 μM MTHFD2i. Oxidative flux data are combined from two independent experiments (n=4), with mean±s.d. estimated using error propagation. OCR data are representative of two independent experiments and presented as mean±s.d. estimated using error propagation (n=5). b, Reductive MTHFD2 flux and basal OCR in SKOV3 cells treated with rotenone (0, 31, 62, 125, 250 or 1,000 nM) and MTHFD2 inhibitor (0 or 60 μM). Reductive MTHFD2 flux is proportional to [2H1]-NADH in cells cultured with 2,3,3-[2H]-serine for 8 h. OCR data are representative of two independent experiments and presented as mean±s.e.m. (n=5). c, Schematic of combination tracer experiment with 4-[2H]-glucose and [2H]-formate to track oxidative MTHFD2 flux. […] (n=6) and analysed using two-tailed Welch's t-test. e, Ratio of [2H2]-serine/[2H]-NADH enrichment in SKOV3 and OVCAR8 cells at 2 h after combined tracer introduction of 4-[2H]-glucose and [2H]-formate, representing the normalized contribution of [2H]-NADH to [2H2]-serine via oxidative MTHFD2 flux. Data combined from two independent experiments (n=6), with mean±s.d. estimated using error propagation and analysed by two-tailed Welch's t-test. f, [2H2]-serine enrichment in SKOV3 cells expressing shScramble or shUQCR11 at 2 h after combined tracer introduction of 4-[2H]-glucose and [2H]-formate. […] (n=5) and analysed using one-tailed non-parametric Mann-Whitney test.
OCR measurement. […] Live OCR was measured for up to 16 h after attaching the lid.
Mito stress test with the Seahorse analyser. Mitochondrial OCR was measured using a Seahorse XFe96 analyser (Agilent Technologies). […]

Assay [3] concerns parental ovarian cancer lines and isogenic SKOV3 lines. Briefly: Viability with MTHFD2 inhibitor and uridine supplementation. The note with it: uridine 50 μM supplementation. How it is done:
FIG. 15 Investigating metabolic consequence of Complex III impairment and activity of paralogous pathways other than oxidative MTHFD2. (a) Effect of MTHFD2 inhibitor ([…]) and uridine (50 μM) supplementation on viability of parental ovarian cancer lines that are UQCR11—intact (SKOV3) or UQCR11-null (HeyA8, OVCAR8, CAOV3). Data are representative of two independent experiments and presented as mean±s.d. (n=6). Data analyzed with one-way ANOVA with Tukey's correction for multiple comparisons. (b) Effect of MTHFD2 inhibitor and uridine supplementation on viability of isogenic SKOV3 lines expressing shScramble or shUQCR11. […] Data analyzed with one-way ANOVA with Tukey's correction for multiple comparisons. […] (n=6) and analyzed using two-tailed Student's t-test. (d) mRNA expression of NNT, IDH2, IDH3A measured via qRT-PCR after knocking down with shNNT, shIDH2, and shIDH3A, relative to scramble shRNA (shScr), verifying knockdown efficiency in SKOV3 and OVCAR8 cell-lines. […] Data analyzed using unpaired two-tailed Student's t-test. […] Data are analyzed using ordinary one-way ANOVA with multiple comparisons. […] Loss of viability calculated by comparing respective viability in vehicle control-treated cells to MTHFD2 inhibitor-treated cells. […] (n=6) and analyzed using ordinary one-way ANOVA with Dunnett's correction for multiple comparisons. Error bars are calculated using propagation of error principles.

Turning to `C=C(C)[C@H]1Cc2c(ccc3c2O[C@@H]2COc4cc(OC)c(OC)cc4[C@@H]2C3=O)O1` [rotenone], in assay [1], the “oxidative MTHFD2 flux” value is recorded as “first increased with increasing, yet low, rotenone doses but returned to original levels as doses were further increased”. In assay [2], the “reductive MTHFD2 flux” value was “modest increase at low rotenone doses, which became most pronounced at the highest doses”. In addition, the “basal OCR” value in the assay with SKOV3 cells is “monotonic decrease”.

Take `O=c1ccn([C@@H]2O[C@H](CO)[C@@H](O)[C@H]2O)c(=O)[nH]1` [uridine]: the “rescue of cells from MTHFD2 inhibition” value in assay [3] is listed as “unable to rescue”.
